The NIST ThermoML archive (doi:10.1016/j.fluid.2015.01.002)

Experiments:
[1] = refractive index (Na D-line) (dimensionless); conditions: 298.15 K; 101.33 kPa; Liquid; Standard Abbe refractometry
[2] = 298.15 K; 101.33 kPa; Liquid; Vibrating tube method
[3] = xn = mol fraction of the nth substance listed; conditions: 298.15 K, 101 kPa, Liquid, Vibrating tube method
[4] = refractive index (Na D-line) (dimensionless); xn = mol fraction of the nth substance listed; conditions: 298.15 K, 101 kPa, Liquid, Standard Abbe refractometry

Cc1ccc(C)cc1 [1,4-dimethylbenzene]
Conditions | mass density [kg/m3] | refractive index
[1] | – | 1.49281
[2] | 856.78 | –

Cc1ccc(C)cc1 [1,4-dimethylbenzene] + CC#N
Conditions | mass density, [3] [kg/m3] | refractive index, [4]
x1 = 0.05 | 785.5 | 1.3575
x1 = 0.1 | 793.4 | 1.3717
x1 = 0.2 | 806.77 | 1.3975
x1 = 0.3 | 817.69 | 1.4181
x1 = 0.4 | 826.78 | 1.4353
x1 = 0.5 | 834.35 | 1.4498
x1 = 0.6 | 840.73 | 1.4642
x1 = 0.7 | 846.09 | 1.4757
x1 = 0.8001 | 850.43 | 1.4835
x1 = 0.9001 | 854.1 | 1.4889
x1 = 0.9503 | 855.52 | 1.4913

COCCO [2-methoxyethan-1-ol]
Conditions | mass density [kg/m3] | refractive index
[1] | – | 1.39981
[2] | 959.73 | –

COCCO [2-methoxyethan-1-ol] + Cc1ccc(C)cc1
Conditions | mass density, [3] [kg/m3] | refractive index, [4]
x2 = 0.0499 | 952.02 | 1.4069
x2 = 0.0999 | 944.39 | 1.4136
x2 = 0.1999 | 930.07 | 1.4253
x2 = 0.3 | 917.28 | 1.4367
x2 = 0.3999 | 905.75 | 1.4462
x2 = 0.5001 | 895.38 | 1.4557
x2 = 0.6 | 885.92 | 1.4641
x2 = 0.6999 | 877.19 | 1.4717
x2 = 0.7999 | 869.23 | 1.4793
x2 = 0.8999 | 862.2 | 1.4862
x2 = 0.9499 | 859.28 | 1.4895

COCCO [2-methoxyethan-1-ol] + Cc1ccccc1
Conditions | mass density, [3] [kg/m3] | refractive index, [4]
x2 = 0.05 | 953.61 | 1.4048
x2 = 0.0998 | 947.42 | 1.4113
x2 = 0.1999 | 935.21 | 1.4233
x2 = 0.3001 | 923.65 | 1.434
x2 = 0.4 | 912.84 | 1.4437
x2 = 0.4999 | 902.65 | 1.453
x2 = 0.6 | 893.14 | 1.4616
x2 = 0.7001 | 884.22 | 1.4701
x2 = 0.8 | 875.94 | 1.4782
x2 = 0.9 | 868.48 | 1.486
x2 = 0.9498 | 865.12 | 1.4899

COCCO [2-methoxyethan-1-ol] + c1ccccc1
Conditions | mass density, [3] [kg/m3] | refractive index, [4]
x2 = 0.05 | 955.11 | 1.4054
x2 = 0.0998 | 950.35 | 1.4105
x2 = 0.2001 | 940.54 | 1.4193
x2 = 0.2998 | 930.95 | 1.4286
x2 = 0.4 | 921.55 | 1.4385
x2 = 0.4999 | 912.55 | 1.4486
x2 = 0.5999 | 903.8 | 1.4586
x2 = 0.7 | 895.3 | 1.4679
x2 = 0.8 | 887.18 | 1.477
x2 = 0.8998 | 879.76 | 1.4864
x2 = 0.95 | 876.36 | 1.4916

CC#N [acetonitrile]
Conditions | mass density [kg/m3] | refractive index
[1] | – | 1.34143
[2] | 776.64 | –

CC#N [acetonitrile] + Cc1ccccc1
Conditions | mass density, [3] [kg/m3] | refractive index, [4]
x2 = 0.0499 | 784.94 | 1.3557
x2 = 0.1 | 792.57 | 1.3686
x2 = 0.2 | 806.07 | 1.3917
x2 = 0.3 | 817.61 | 1.412
x2 = 0.4 | 827.52 | 1.4308
x2 = 0.4999 | 835.99 | 1.4457
x2 = 0.6 | 843.26 | 1.458
x2 = 0.6999 | 849.43 | 1.4683
x2 = 0.8001 | 854.74 | 1.4785
x2 = 0.9 | 858.99 | 1.487
x2 = 0.9498 | 860.78 | 1.4907

CC#N [acetonitrile] + c1ccccc1
Conditions | mass density, [3] [kg/m3] | refractive index, [4]
x2 = 0.05 | 784.35 | 1.3523
x2 = 0.1 | 791.68 | 1.3638
x2 = 0.2 | 805.24 | 1.3823
x2 = 0.2998 | 817.45 | 1.402
x2 = 0.4001 | 828.54 | 1.4217
x2 = 0.4999 | 838.46 | 1.4378
x2 = 0.6002 | 847.41 | 1.4531
x2 = 0.7004 | 855.36 | 1.466
x2 = 0.7997 | 862.34 | 1.4789
x2 = 0.9002 | 868.48 | 1.4892
x2 = 0.9506 | 871.14 | 1.4929

c1ccccc1 [benzene]
Conditions | mass density [kg/m3] | refractive index
[1] | – | 1.49749
[2] | 873.73 | –

CCCCCCCCCCCCCCCC [hexadecane]
Conditions | mass density [kg/m3] | refractive index
[1] | – | 1.43225
[2] | 770.3 | –

Cc1ccccc1 [toluene]
Conditions | mass density [kg/m3] | refractive index
[1] | – | 1.49367
[2] | 862.34 | –
